In patent US9139523B2, “5-HT2B receptor antagonists” (Janssen Pharmaceutica, NV, priority 2010, dated 2015):

Tests used:
[1] = Pharmacokinetic evaluation in the mouse; type: in vivo; conditions: male CD1 mouse
Description: For intravenous (i.v.) administration, Compound (−)-17 was dissolved in saline containing 20% (w/v) hydroxy-propyl-beta-cyclodextrin (HPbCD) at a concentration of 0.25 mg/mL and administered (10 mL/kg) to male CD1 mice (n=3) as a bolus via a tail vein at a dose level of 2.5 mg/kg. For oral (p.o.) administration, Compound (−)-17 was dissolved in water containing 20% (w/v) HPbCD at a concentration of 0.5 mg/mL and administered (20 mL/kg) to male CD1 mice (n=3) via gavage at a dose level of 10 mg/kg. Blood samples were collected via a saphenous vein at serial time points up to 24 h after dosing. Plasma was obtained by centrifugation and stored at −20° C. prior to analysis. Analysis was performed using liquid chromatography (LC) with tandem mass spectrometric detection (MS/MS) in positive ion mode. Compound (−)-17 was eluted from a reversed phase column with a gradient of acetonitrile and water containing 0.1% (v/v) formic acid. At the time of analysis plasma samples (20 uL) were thawed and […] with 200 uL of acetonitrile and centrifuged. Aliquots of the supernatant were injected onto a reversed phase UPLC column and analysed via electrospray Mass Spectrometry. Calibration standards and quality controls, analysed before and after the study samples, were prepared in mouse plasma at the same time as […]. The accuracy (intra branch accuracy from independent QC samples) was between 85% and 115% of the nominal value over the entire concentration range. Non-compartmental pharmacokinetic analysis of the plasma concentration-time curves was performed using WinNonLin to provide estimates of the plasma clearance (CLp), volume of distribution at steady-state (Vss), terminal phase elimination half-life ([…]) and oral bioavailability (F), the results are summarised in Table 8.

[2] = Pharmacokinetic evaluation in the rat; type: in vivo; conditions: male Sprague Dawley rat
Description: For intravenous (i.v.) administration, Compound (−)-17 was dissolved in saline containing 20% (w/v) hydroxy-propyl-beta-cyclodextrin (HPbCD) at a concentration of 1 mg/mL and administered (2.5 mL/kg) to male Sprague Dawley rats (n=1) as a bolus via a saphenous vein at a dose level of 2.5 mg/kg. For oral (p.o.) administration, Compound (−)-17 was dissolved in water containing 20% (w/v) HPbCD at a concentration of 1 mg/mL and administered (10 mL/kg) to male Sprague Dawley rats (n=3) via gavage at a dose level of 10 mg/kg. Blood samples were collected via a tail vein at serial time points up to 24 h after dosing. Plasma was obtained by centrifugation and stored at −20° C. prior to analysis. Analysis was performed using liquid chromatography (LC) with tandem mass spectrometric detection (MS/MS) in positive ion mode. Compound (−)-17 was eluted from a reversed phase column with a gradient of acetonitrile and water containing 0.1% (v/v) formic acid. At the time of analysis plasma samples (50 uL) were thawed and […] with at least three volumes of acetonitrile and centrifuged. Aliquots of the supernatant were injected onto a reversed phase UPLC column and analysed via electrospray Mass Spectrometry. Calibration standards and quality controls, analysed before and after the samples, were prepared in rat plasma at the same time as the study samples. The accuracy (intra branch accuracy from independent QC samples) was between 85% and 115% of the nominal value over the entire concentration range. Non-compartmental pharmacokinetic analysis of the plasma concentration-time curves was performed using WinNonLin to provide estimates of the plasma clearance (CLp), volume of distribution at steady-state (Vss), terminal phase elimination half-life (t½) and oral bioavailability (F), the results are summarised in Table 8.

[3] = p.o. 10 mg/kg vs i.v. 2.5 mg/kg
[4] = plasma, intravenous, 2.5 mg/kg, read-out: t½ (converted)

COc1cc(N)c(Cl)cc1C(=O)NC1CCN(CCCOc2ccc(F)cc2)CC1(F)F (single isomer, unassigned) [Compound (−)-17, 4-amino-5-chloro-N-{3,3-difluoro-1-[3-(4-fluorophenoxy)-propyl]-piperidin-4-yl}-2-methoxybenzamide]
F [1, 3]: 52% | half-life [1, 4]: 84 ± 12 min | clearance ([1]; plasma, iv, i.v. 2.5 mg/kg): 20 ± 6 mL/min/kg | Vd ([1]; plasma, iv, i.v. 2.5 mg/kg, read-out: Vss): 1.9 ± 0.6 L/kg | AUC(0-t) ([1]; plasma, po, p.o. 10 mg/kg): 4440 ± 1090 ng·h/mL | Cmax ([1]; plasma, po, p.o. 10 mg/kg): 1580 ± 165 ng/mL | Tmax ([1]; plasma, po, p.o. 10 mg/kg): 30 min | F [2, 3]: 19% | half-life [2, 4]: 66 min | clearance ([2]; plasma, iv, i.v. 2.5 mg/kg (n=1)): 46 mL/min/kg | Vd ([2]; plasma, iv, i.v. 2.5 mg/kg (n=1), read-out: Vss): 3.1 L/kg | AUC(0-t) ([2]; plasma, po, p.o. 10 mg/kg): 686 ± 254 ng·h/mL | Cmax ([2]; plasma, po, p.o. 10 mg/kg): 119 ± 37 ng/mL | Tmax ([2]; plasma, po, p.o. 10 mg/kg): 30 min
